Values quoted from earlier work, collected in patent EP0156318A2, “C-terminal amide cyclic renin inhibitors containing peptide isosteres” (Merck & Co., Inc., priority 1984, dated 1985).
Square brackets hold non-standard residues; d marks the D form. Peptide text beside a SMILES is read from it. * marks the point of attachment. Sta = CC(C)C[C@H](N)[C@@H](O)CC(=O)O; Isovaleryl = CC(C)CC(=O)*

Tested on: hog renin
Details: after the injection of hog renin into nephrectomized rats

SMILES: CC(C)CC(=O)N[C@H](C(=O)N[C@H](C(=O)N[C@@H](CC(C)C)[C@@H](O)CC(=O)N[C@@H](C)C(=O)N[C@@H](CC(C)C)[C@@H](O)CC(=O)O)C(C)C)C(C)C [pepstatin] (Isovaleryl-VV[Sta]A[Sta]-OH)
- blood pressure in vivo: reduce blood pressure
